Data: patent US10344060B2 (priority 2013, dated 2019)

Target: hNav1.7 (Homo sapiens, UniProt Q15858)
Assay: cell-based
Assay type: cell-based
Conditions: for Nav1.4/Nav1.7 / Nav1.5/Nav1.7: ratio of PX tonic IC50 values, Table 11; for IC50: Table 12, PatchXpress, tonic block, read-out: PX hNav1.7 Tonic IC50

Chain of hNav1.7 (Q15858 whole entry): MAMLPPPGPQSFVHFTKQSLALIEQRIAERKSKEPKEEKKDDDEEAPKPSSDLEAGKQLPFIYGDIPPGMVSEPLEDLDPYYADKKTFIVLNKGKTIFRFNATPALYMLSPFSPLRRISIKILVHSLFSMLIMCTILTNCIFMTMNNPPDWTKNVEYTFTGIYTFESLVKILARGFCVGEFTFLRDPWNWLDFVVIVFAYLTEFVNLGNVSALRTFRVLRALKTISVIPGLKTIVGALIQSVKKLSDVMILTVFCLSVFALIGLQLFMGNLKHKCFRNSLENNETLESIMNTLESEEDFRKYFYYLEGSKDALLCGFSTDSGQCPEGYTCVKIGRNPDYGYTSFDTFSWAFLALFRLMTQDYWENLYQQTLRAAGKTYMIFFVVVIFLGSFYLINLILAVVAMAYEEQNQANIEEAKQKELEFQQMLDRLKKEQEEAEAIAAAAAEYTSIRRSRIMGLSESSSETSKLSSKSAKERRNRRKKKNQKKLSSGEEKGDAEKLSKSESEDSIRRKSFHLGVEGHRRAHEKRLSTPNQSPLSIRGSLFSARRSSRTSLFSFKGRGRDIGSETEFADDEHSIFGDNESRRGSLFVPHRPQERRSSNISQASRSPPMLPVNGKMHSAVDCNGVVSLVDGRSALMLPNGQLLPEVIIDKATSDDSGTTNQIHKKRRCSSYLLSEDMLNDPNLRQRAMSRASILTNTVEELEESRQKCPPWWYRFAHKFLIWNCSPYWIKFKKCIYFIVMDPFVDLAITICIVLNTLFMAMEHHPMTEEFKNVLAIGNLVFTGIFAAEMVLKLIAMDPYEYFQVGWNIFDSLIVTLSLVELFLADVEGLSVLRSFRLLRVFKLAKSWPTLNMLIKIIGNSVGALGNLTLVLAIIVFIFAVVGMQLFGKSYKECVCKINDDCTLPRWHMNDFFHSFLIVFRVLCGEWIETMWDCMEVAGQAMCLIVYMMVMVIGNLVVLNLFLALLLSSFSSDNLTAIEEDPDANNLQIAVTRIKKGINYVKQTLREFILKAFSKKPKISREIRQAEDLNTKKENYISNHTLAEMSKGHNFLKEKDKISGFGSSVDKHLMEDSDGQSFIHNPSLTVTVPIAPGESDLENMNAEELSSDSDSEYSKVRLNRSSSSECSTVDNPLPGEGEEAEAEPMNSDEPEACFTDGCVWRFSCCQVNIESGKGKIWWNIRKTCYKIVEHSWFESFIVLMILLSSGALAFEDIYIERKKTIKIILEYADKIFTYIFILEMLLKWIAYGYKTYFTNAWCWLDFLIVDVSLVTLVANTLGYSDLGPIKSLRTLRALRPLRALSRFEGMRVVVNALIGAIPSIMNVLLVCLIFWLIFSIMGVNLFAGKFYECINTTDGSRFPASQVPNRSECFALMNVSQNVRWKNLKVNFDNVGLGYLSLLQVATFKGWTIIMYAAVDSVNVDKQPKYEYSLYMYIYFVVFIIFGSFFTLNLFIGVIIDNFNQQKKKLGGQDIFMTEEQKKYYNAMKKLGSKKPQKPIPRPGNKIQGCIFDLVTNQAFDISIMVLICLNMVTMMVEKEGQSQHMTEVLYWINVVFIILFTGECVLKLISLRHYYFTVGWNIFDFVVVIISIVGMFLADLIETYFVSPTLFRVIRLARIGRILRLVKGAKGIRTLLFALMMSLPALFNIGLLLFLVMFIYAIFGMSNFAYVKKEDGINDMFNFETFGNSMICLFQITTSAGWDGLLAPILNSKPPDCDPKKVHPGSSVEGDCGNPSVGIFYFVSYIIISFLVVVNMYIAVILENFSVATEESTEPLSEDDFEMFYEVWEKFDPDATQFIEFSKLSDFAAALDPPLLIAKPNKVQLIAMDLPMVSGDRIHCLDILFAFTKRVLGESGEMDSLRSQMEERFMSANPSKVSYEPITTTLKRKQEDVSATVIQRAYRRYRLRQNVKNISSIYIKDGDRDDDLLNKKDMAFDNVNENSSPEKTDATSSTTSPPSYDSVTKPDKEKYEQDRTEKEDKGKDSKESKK

Row | SMILES | Nav1.4/Nav1.7 | Nav1.5/Nav1.7 | IC50 [nM]
1 | CCCC[C@@H]1NC(=O)[C@H](Cc2c[nH]c3ccccc23)NC(=O)[C@H](CCCCN)NC(=O)[C@H](CCC(N)=O)NC(=O)[C@@H](NC(=O)[C@H](Cc2ccc(O)cc2)NC(=O)[C@H](CCC)NC(=O)[C@H](N)CC(C)C)CSSC[C@@H]2NC(=O)[C@@H]3CSSC[C@@H](C(=O)N[C@@H](CCCNC(=N)N)C(=O)N[C@@H](CCCCN)C(=O)N[C@@H](CCC(=O)O)C(=O)N[C@H](C(N)=O)[C@@H](C)CC)NC(=O)[C@H](Cc4c[nH]c5ccccc45)NC(=O)[C@H](CC(C)C)NC(=O)[C@H](CCCCN)NC(=O)[C@H](CSSC[C@H](NC(=O)[C@H]([C@@H](C)O)NC(=O)[C@H](Cc4c[nH]c5ccccc45)NC1=O)C(=O)N[C@@H](CC(=O)O)C(=O)N[C@@H](CO)C(=O)N[C@@H](CCCCN)C(=O)N[C@@H](CCCNC(=N)N)C(=O)N[C@@H](C)C(=O)N3)NC(=O)[C@H](CCCNC(=N)N)NC(=O)[C@H](CC(C)C)NC(=O)CNC(=O)[C@H](CCCCNC(=O)CCOCCOCCOCCOCCOCCOCCOCCOCCOCCOCCOCCOCCN)NC2=O [compound 473] | 34 | 180 | 
2 | C#CC[C@H](N)C(=O)N[C@@H](Cc1ccc(O)cc1)C(=O)N[C@H]1CSSC[C@@H]2NC(=O)[C@@H]3CSSC[C@@H](C(=O)N[C@@H](CCCNC(=N)N)C(=O)N[C@@H](CCCCN)C(=O)N[C@@H](CCCC)C(=O)N[C@H](C(N)=O)[C@@H](C)CC)NC(=O)[C@H](Cc4c[nH]c5ccccc45)NC(=O)[C@H](CC(C)C)NC(=O)[C@H](CCCCN)NC(=O)[C@H](CSSC[C@H](NC(=O)[C@H]([C@@H](C)O)NC(=O)[C@H](Cc4c[nH]c5ccccc45)NC(=O)[C@H](CCCC)NC(=O)[C@H](Cc4c[nH]c5ccccc45)NC(=O)[C@H](CCCCN)NC(=O)[C@H](CCC(N)=O)NC1=O)C(=O)N[C@@H](CC(=O)O)C(=O)N[C@@H](CO)C(=O)N[C@@H](CCCCN)C(=O)N[C@@H](CCCNC(=N)N)C(=O)N[C@@H](C)C(=O)N3)NC(=O)[C@H](CCCNC(=N)N)NC(=O)[C@H](CC(C)C)NC(=O)CNC(=O)[C@H](CCC(=O)O)NC2=O [compound 664] |  |  | 0.339
3 | CC[C@H](C)[C@H](NC(=O)[C@H](Cc1ccc(O)cc1)NC(=O)[C@H](CCCCN)NC(=O)[C@H](CCCNC(=N)N)NC(=O)[C@@H]1CSSC[C@@H]2NC(=O)[C@H](C)NC(=O)[C@H](CCCNC(=N)N)NC(=O)[C@H](CCCCN)NC(=O)[C@H](CO)NC(=O)[C@H](CC(=O)O)NC(=O)[C@@H]3CSSC[C@H](NC(=O)[C@H](CCC(=O)O)NC(=O)[C@H](CC(C)C)NC(=O)CNC(=O)[C@H](CCC(=O)O)NC(=O)[C@H](CSSC[C@H](NC(=O)[C@@H](N)Cc4ccc(O)cc4)C(=O)N[C@@H](CCC(N)=O)C(=O)N[C@@H](CCCCN)C(=O)N[C@@H](Cc4ccccc4)C(=O)N[C@@H](CCSC)C(=O)N[C@@H](Cc4c[nH]c5ccccc45)C(=O)N[C@@H]([C@@H](C)O)C(=O)N3)NC2=O)C(=O)N[C@@H](CCCCN)C(=O)N[C@@H](CC(C)C)C(=O)N[C@@H](Cc2c[nH]c3ccccc23)C(=O)N1)C(N)=O [compound 193] | 217 | 217 | 
4 | C#CC[C@H](N)C(=O)N[C@@H](Cc1ccc(O)cc1)C(=O)N[C@H]1CSSC[C@@H]2NC(=O)[C@@H]3CSSC[C@@H](C(=O)N[C@@H](CCCNC(=N)N)C(=O)N[C@@H](CCCCN)C(=O)N[C@@H](CCC(=O)O)C(=O)N[C@H](C(N)=O)[C@@H](C)CC)NC(=O)[C@H](Cc4c[nH]c5ccccc45)NC(=O)[C@H](CC(C)C)NC(=O)[C@H](CCCCN)NC(=O)[C@H](CSSC[C@H](NC(=O)[C@H]([C@@H](C)O)NC(=O)[C@H](Cc4c[nH]c5ccccc45)NC(=O)[C@H](CCCC)NC(=O)[C@H](Cc4c[nH]c5ccccc45)NC(=O)[C@H](CCCCN)NC(=O)[C@H](CCC(N)=O)NC1=O)C(=O)N[C@@H](CC(=O)O)C(=O)N[C@@H](CO)C(=O)N[C@@H](CCCCN)C(=O)N[C@@H](CCCNC(=N)N)C(=O)N[C@@H](C)C(=O)N3)NC(=O)[C@H](CCCNC(=N)N)NC(=O)[C@H](CCCCN)NC(=O)CNC(=O)[C@H](CCC(=O)O)NC2=O [compound 704] |  |  | > 1000
5 | C#CC[C@H](N)C(=O)N[C@@H](Cc1ccc(O)cc1)C(=O)N[C@H]1CSSC[C@@H]2NC(=O)[C@@H]3CSSC[C@@H](C(=O)N[C@@H](CCCNC(=N)N)C(=O)N[C@@H](CCCCN)C(=O)N[C@@H](CCC(=O)O)C(=O)N[C@H](C(N)=O)[C@@H](C)CC)NC(=O)[C@H](Cc4c[nH]c5ccccc45)NC(=O)[C@H](CC(C)C)NC(=O)[C@H](CCCCN)NC(=O)[C@H](CSSC[C@H](NC(=O)[C@H]([C@@H](C)O)NC(=O)[C@H](Cc4c[nH]c5ccccc45)NC(=O)[C@H](CCCC)NC(=O)[C@H](Cc4c[nH]c5ccccc45)NC(=O)[C@H](CCCCN)NC(=O)[C@H](CCC(N)=O)NC1=O)C(=O)N[C@@H](CC(=O)O)C(=O)N[C@@H](CO)C(=O)N[C@@H](CCCCN)C(=O)N[C@@H](CCCNC(=N)N)C(=O)N[C@@H](C)C(=O)N3)NC(=O)[C@H](Cc1ccccc1)NC(=O)[C@H](CC(C)C)NC(=O)CNC(=O)[C@H](CCC(=O)O)NC2=O [compound 686] |  |  | 10.3
6 | C#CC[C@@H]1NC(=O)[C@H](CO)NC(=O)[C@H](CC(=O)O)NC(=O)[C@@H]2CSSC[C@@H]3NC(=O)[C@H](CCCNC(=N)N)NC(=O)[C@H](CC(C)C)NC(=O)CNC(=O)[C@H](CCC(=O)O)NC(=O)[C@H](CSSC[C@H](NC(=O)[C@@H](N)Cc4ccc(O)cc4)C(=O)N[C@@H](CCC(N)=O)C(=O)N[C@@H](CCCCN)C(=O)N[C@@H](Cc4c[nH]c5ccccc45)C(=O)N[C@@H](CCCC)C(=O)N[C@@H](Cc4c[nH]c5ccccc45)C(=O)N[C@@H]([C@@H](C)O)C(=O)N2)NC(=O)[C@H](CSSC[C@@H](C(=O)N[C@@H](CCCNC(=N)N)C(=O)N[C@@H](CCCCN)C(=O)N[C@@H](CCC(=O)O)C(=O)N[C@H](C(N)=O)[C@@H](C)CC)NC(=O)[C@H](Cc2c[nH]c4ccccc24)NC(=O)[C@H](CC(C)C)NC(=O)[C@H](CCCCN)NC3=O)NC(=O)[C@H](C)NC(=O)[C@H](CCCNC(=N)N)NC1=O [compound 879] |  |  | 1.35
7 | C#CC[C@@H]1NC(=O)[C@@H]2CSSC[C@H](NC(=O)[C@H](CCC(=O)O)NC(=O)[C@@H](N)CC#N)C(=O)N[C@@H](CCC(N)=O)C(=O)N[C@@H](CCCCN)C(=O)N[C@@H](Cc3c[nH]c4ccccc34)C(=O)N[C@@H](CCCC)C(=O)N[C@@H](Cc3c[nH]c4ccccc34)C(=O)N[C@@H]([C@@H](C)O)C(=O)N[C@H]3CSSC[C@H](NC(=O)[C@H](CCCNC(=N)N)NC(=O)[C@H](CC(C)C)NC(=O)CNC1=O)C(=O)N[C@@H](CCCCN)C(=O)N[C@@H](CC(C)C)C(=O)N[C@@H](Cc1c[nH]c4ccccc14)C(=O)N[C@H](C(=O)N[C@@H](CCCNC(=N)N)C(=O)N[C@@H](CCCCN)C(=O)N[C@@H](CCC(=O)O)C(=O)N[C@H](C(N)=O)[C@@H](C)CC)CSSC[C@H](NC(=O)[C@H](CCC(=O)O)NC(=O)[C@H](CCCNC(=N)N)NC(=O)[C@H](CCC(=O)O)NC(=O)[C@H](CCC(=O)O)NC(=O)[C@H](CC(=O)O)NC3=O)C(=O)N2 [compound 757] |  |  | > 1000
8 | CCCC[C@@H]1NC(=O)[C@H](CO)NC(=O)[C@H](CC(=O)O)NC(=O)[C@@H]2CSSC[C@@H]3NC(=O)[C@H](CCCNC(=N)N)NC(=O)[C@H](CC(C)C)NC(=O)CNC(=O)[C@H](CCCCNC(=O)CCOCCOCCOCCOCCOCCOCCOCCOCCOCCOCCOCCOCCN)NC(=O)[C@H](CSSC[C@H](NC(=O)[C@H](Cc4ccc(O)cc4)NC(=O)[C@@H](N)CC#N)C(=O)N[C@@H](CCC(N)=O)C(=O)N[C@@H](CCCCN)C(=O)N[C@@H](Cc4c[nH]c5ccccc45)C(=O)N[C@@H](CCCC)C(=O)N[C@@H](Cc4c[nH]c5ccccc45)C(=O)N[C@@H]([C@@H](C)O)C(=O)N2)NC(=O)[C@H](CSSC[C@@H](C(=O)N[C@@H](CCCNC(=N)N)C(=O)N[C@@H](CCCCN)C(=O)N[C@@H](CCC(=O)O)C(=O)N[C@H](C(N)=O)[C@@H](C)CC)NC(=O)[C@H](Cc2c[nH]c4ccccc24)NC(=O)[C@H](CC(C)C)NC(=O)[C@H](CCCCN)NC3=O)NC(=O)[C@H](C)NC(=O)[C@H](CCCNC(=N)N)NC1=O [compound 561] | 33 |  | 
9 | CCCC[C@@H]1NC(=O)[C@H](Cc2c[nH]c3ccccc23)NC(=O)[C@H](CCCCN)NC(=O)[C@H](CCC(N)=O)NC(=O)[C@@H](NC(=O)[C@H](Cc2ccc(O)cc2)NC(=O)[C@H](CCC)NC(=O)[C@@H](N)CC(C)C)CSSC[C@@H]2NC(=O)[C@@H]3CSSC[C@@H](C(=O)N[C@@H](CCCNC(=N)N)C(=O)N[C@@H](CCCCN)C(=O)N[C@@H](CCC(=O)O)C(=O)N[C@H](C(N)=O)[C@@H](C)CC)NC(=O)[C@H](Cc4c[nH]c5ccccc45)NC(=O)[C@H](CC(C)C)NC(=O)[C@H](CCCCN)NC(=O)[C@H](CSSC[C@H](NC(=O)[C@H]([C@@H](C)O)NC(=O)[C@H](Cc4c[nH]c5ccccc45)NC1=O)C(=O)N[C@@H](CC(=O)O)C(=O)N[C@@H](CO)C(=O)N[C@@H](CCCCN)C(=O)N[C@@H](CCCNC(=N)N)C(=O)N[C@@H](C)C(=O)N3)NC(=O)[C@H](CCCNC(=N)N)NC(=O)[C@H](CC(C)C)NC(=O)CNC(=O)[C@H](CCCCNC(=O)CCOCCOCCOCCOCCOCCOCCOCCOCCOCCOCCOCCOCCN)NC2=O [compound 471] | 6 | 110 | 
10 | C#CC[C@H](N)C(=O)N[C@@H](Cc1ccc(O)cc1)C(=O)N[C@H]1CSSC[C@@H]2NC(=O)[C@@H]3CSSC[C@@H](C(=O)N[C@@H](CCCNC(=N)N)C(=O)N[C@@H](CCCCN)C(=O)N[C@@H](CCC(=O)O)C(=O)N[C@H](C(N)=O)[C@@H](C)CC)NC(=O)[C@H](Cc4c[nH]c5ccccc45)NC(=O)[C@H](CC(C)C)NC(=O)[C@H](CCCCN)NC(=O)[C@H](CSSC[C@H](NC(=O)[C@H]([C@@H](C)O)NC(=O)[C@H](Cc4c[nH]c5ccccc45)NC(=O)[C@H](CCCC)NC(=O)[C@H](Cc4c[nH]c5ccccc45)NC(=O)[C@H](CCCCN)NC(=O)[C@H](CCC(N)=O)NC1=O)C(=O)N[C@@H](CC(=O)O)C(=O)N[C@@H](CO)C(=O)N[C@@H](CCCCN)C(=O)N[C@@H](CCCNC(=N)N)C(=O)N[C@@H](C)C(=O)N3)NC(=O)[C@H](CCCNC(=N)N)NC(=O)[C@H](C)NC(=O)CNC(=O)[C@H](CCC(=O)O)NC2=O [compound 703] |  |  | > 1000
